According to publication PMC8899820, “Pharmacokinetics, Tissue Distribution, and Excretion Characteristics of a Radix Polygoni Multiflori Extract in Rats” (Frontiers in Pharmacology, 2022):
Read-outs that look alike come from different tables or passages of the source.

Legend:
[1] = RPM extract 36 g/kg p.o., rat plasma, Mean ± SD, n = 6; ref Cheng et al., 2020; cited from earlier work
[2] = Excretion into urine and feces and mass balance after oral RPM extract; conditions: for dose excreted: Sprague-Dawley, rat, po, mass balance, 18 g/kg RPM extract p.o.; for cumulative excretion into feces / cumulative excretion into urine: single p.o. RPM extract 18 g/kg; for cumulative excretion into feces: rat feces; for cumulative excretion into urine: rat urine
Experimental: (§1) For the excretion study, the rats were housed singly in metabolic cages with urine collection tubes kept at 4 °C during sample collection. Urine and fecal samples were collected at time intervals of 0–4, 4–8, 8–24, 24–32, and 32–48 h after a single dose of RPM extract at 18 g/kg and then weighed. Another six rats were anesthetized with pentobarbital, fixed in the supine position and subjected to bile duct drainage surgery, and the abdominal wound was sutured. Blank bile samples were collected before the administration of RPM. The rats were weighed, and the state of the rats was observed. Subsequently, they were orally administered 18 g/kg RPM extract. The bile samples were collected at time intervals of 0–1, 1–2, 2–4, 4–6, 6–8, 8–24, 24–32 and 32–48 h. The urine, feces, and bile samples were stored at −70°C until use.
(§2) Samples were prepared using the protein precipitation process. […] After vortex shaking for 5 min and centrifugation at 14,000 g for 5 min, 150 μL of the organic layer was transferred to a clean tube and evaporated to dryness at 25°C under a stream of nitrogen. The residue was reconstituted in 50 μL of the initial mobile phase and subjected to another round of centrifugation at 14,000 g for 5 min, and 5 μL of the supernatant was injected for LC–MS/MS analysis. […] Urine and bile samples were centrifuged at 4°C and 12,000 × g for 15 min. Fecal samples were homogenized in 0.9% saline and then centrifuged at 4°C and 12,000 × g for 15 min to gather the fecal homogenates. Tissue homogenate, urine, bile and fecal samples were subjected to a similar process as the rat plasma samples.
(§3) For the excretion study, 6 rats were placed in metabolic cage after orally administered with 18 g/kg RPM extract, and urine, feces samples were collected at time intervals of 0–4, 4–8, 8–24, 24–32, 32–48, 48–60, and 60–72 h. Another 6 rats were anesthetized with pentobarbital, fixed in the supine position and performed bile duct drainage operation, and the abdominal wound was sutured. […] Subsequently, they were orally administered with 18 g/kg RPM extract. The bile samples were collected at time intervals of 0–1, 1–2, 2–4, 4–6, 6–8, 8–24, 24–32 and 32–48 h. The urine, feces, and bile samples were stored at −70 °C until use.

[3] = cited from earlier work
[4] = Biliary excretion in bile duct drained rats after oral RPM extract; conditions: single p.o. RPM extract 18 g/kg, rat bile
Experimental: as §1, §2, §3

[5] = Dose-exposure relationship (power function model with confidence interval method)
Experimental: (§4) The pharmacokinetic parameters, including the area under the plasma concentration-time curve from time zero to time t (AUC0-t) to time infinity (AUC0-∞), the time to reach the maximum plasma concentration (T max), the elimination half-time (t 1/2), and the maximum plasma concentration (C max), were calculated using the pharmacokinetic software Phoenix® WinNonlin®, version 7.0 (Scientific Consulting Inc., Apex, NC, United States). Data are expressed as the mean ± standard deviation (SD) for each group. The dose-exposure relationship was evaluated by the power function model combined with the confidence interval method ([Smith et al., 2000]; [Sethuraman et al., 2007]; [Hummel et al., 2009]). First, the administration dose, AUC0-∞ and C max were logarithmically transformed, and then a linear regression was performed to obtain the curve correlation coefficient (R^2), slope and 90% confidence interval (90% CI).

[6] = Tissue distribution of RPM constituents after oral RPM extract; conditions: for AUC(0-t): Sprague-Dawley, rat, po, 18 g/kg
Experimental: For the tissue distribution study, 18 rats were randomly divided into three groups (n = 6, each) and orally administered 18 g/kg RPM extract. The rats under isoflurane anesthesia were sacrificed by bleeding from the abdominal aorta at 5, 15, and 60 min (six rats per time point) after gavage with 18 g/kg RPM extract. Subsequently, the heart, liver, spleen, lung, kidney, brain, stomach, small intestine, bladder, and gonads (testes of male rats, and uterus and ovaries of female rats) were immediately collected. An accurately weighed amount of fresh tissue sample (0.25 g) was individually homogenized with normal saline (1 ml) and transferred (50 μL) as a tissue homogenate to 1.5 ml centrifuge tubes for use as the tissue samples. All tissue samples were stored at −70°C until analysis.
Samples were prepared using the protein precipitation process. […] The tissue samples were homogenized in four parts of ice-cold 0.9% saline solution and then centrifuged at 4°C and 12,000 × g for 10 min to obtain tissue homogenates. […] Tissue homogenate, urine, bile and fecal samples were subjected to a similar process as the rat plasma samples.
For the tissue distribution study, 18 rats were randomly divided into three groups (n=6, each), and orally administered with 18 g/kg RPM extract. The rats were sacrificed at 5, 15, 60 min after orally administering RPM. Subsequently, the heart, liver, spleen, lung, kidney, brain, stomach, small intestine, bladder, gonad (testes of male rats, uterus and ovaries of female rats) were immediately collected. An accurately weighed amount of fresh tissue sample (0.25 g) was individually homogenized with normal saline (1 mL) and transferred (50 μL) as a tissue homogenate to 1.5 mL centrifuge tubes for use as the tissue samples.

[7] = Plasma pharmacokinetics of RPM constituents after oral RPM extract; conditions: for time at which C max was exhibited: RPM extract p.o.; for AUC(0-inf) / AUC(0-t) / Cmax / MRT inf / Tmax / half-life: Sprague-Dawley, rat, plasma, po
Text: For the pharmacokinetic (PK) study, three groups (n = 6 each) of rats were orally administered RPM extract (6, 18, and 36 g/kg). In the plasma pharmacokinetics experiment, doses were 6, 18, and 36 g/kg for the single administration group and 18 g/kg for the continuous administration group. The doses were set at a subtoxic level ([Zhang et al., 2013]; [Wang et al., 2015]) to investigate the pharmacokinetic profiles of the constituents of RPM (36 g/kg group) and were approximately 60 times the upper dose (6 g/day) for humans recommended by the 2020 edition of Chinese Pharmacopoeia ([Chinese Pharmacopoeia Commission, 2020]), which was converted to a dose for rats based on body surface area conversion ([Reagan-Shaw et al., 2008]). In addition, the low and medium doses decreased in a certain proportion. Serial blood samples (∼120 μL; before dosing and at 5, 15, and 30 min, and 1, 2, 4, 6, 8, 12, and 24 h after administration) were collected in heparinized tubes from the orbital sinus under light isoflurane. The blood samples were centrifuged at 12000 g for 2 min, and the plasma fractions were decanted and frozen at −70°C until analysis.
Samples were prepared using the protein precipitation process. Rat plasma (50 μL) spiked with 10 μL of IS (puerarin 100 ng/ml) was extracted with 150 μL acetonitrile. After vortex shaking for 5 min and centrifugation at 14,000 g for 5 min, 150 μL of the organic layer was transferred to a clean tube and evaporated to dryness at 25°C under a stream of nitrogen. The residue was reconstituted in 50 μL of the initial mobile phase and subjected to another round of centrifugation at 14,000 g for 5 min, and 5 μL of the supernatant was injected for LC–MS/MS analysis.
The analysis was performed on an AB Sciex API 5500 Q Trap mass spectrometer (Toronto, Canada), interfaced with a Waters Acquity UPLC separation module.
as §4

[8] = parameters: method as in Wang P. et al., 2011; conditions: ref Wang P. et al., 2011, cited from earlier work
[9] = feces, Recovery in feces (%), feces collected 0–72 h
[10] = urine and feces, Recovery in urine and feces (%), urine plus feces, 0–72 h
[11] = urine, Recovery in urine (%), urine collected 0–72 h
[12] = AUC0-∞ vs p.o. dose of RPM extract, critical interval 0.88–1.12
[13] = C max vs p.o. dose of RPM extract, critical interval 0.80–1.20
[14] = log AUC0-∞ vs log p.o. dose of RPM extract, critical interval 0.88–1.12
[15] = log C max vs log p.o. dose of RPM extract, critical interval 0.80–1.20
[16] = both, bladder, AUC0-t in bladder, rat tissue: bladder, 18 g/kg RPM extract p.o., tissues collected at 5, 15, 60 min
[17] = both, brain, AUC0-t in brain, rat tissue: brain, 18 g/kg RPM extract p.o., tissues collected at 5, 15, 60 min
[18] = both, heart, AUC0-t in heart, rat tissue: heart, 18 g/kg RPM extract p.o., tissues collected at 5, 15, 60 min
[19] = both, intestine, AUC0-t in intestine, rat tissue: intestine, 18 g/kg RPM extract p.o., tissues collected at 5, 15, 60 min
[20] = both, kidney, AUC0-t in kidney, rat tissue: kidney, 18 g/kg RPM extract p.o., tissues collected at 5, 15, 60 min
[21] = both, liver, AUC0-t in liver, rat tissue: liver, 18 g/kg RPM extract p.o., tissues collected at 5, 15, 60 min
[22] = both, lung, AUC0-t in lung, rat tissue: lung, 18 g/kg RPM extract p.o., tissues collected at 5, 15, 60 min
[23] = both, spleen, AUC0-t in spleen, rat tissue: spleen, 18 g/kg RPM extract p.o., tissues collected at 5, 15, 60 min
[24] = both, stomach, AUC0-t in stomach, rat tissue: stomach, 18 g/kg RPM extract p.o., tissues collected at 5, 15, 60 min
[25] = female, ovary, AUC0-t in ovary, rat tissue: ovary, 18 g/kg RPM extract p.o., tissues collected at 5, 15, 60 min
[26] = female, uterus, AUC0-t in uterus, rat tissue: uterus, 18 g/kg RPM extract p.o., tissues collected at 5, 15, 60 min
[27] = male, testis, AUC0-t in testis, rat tissue: testis, 18 g/kg RPM extract p.o., tissues collected at 5, 15, 60 min

Cc1cc(O)c2c(c1)C(=O)c1cc(O)cc(O)c1C2=O [Emodin, emodin]
AUC0-∞ [1]: 2,970 ± 863 nmol·h/L
AUC(0-t) [1]: 2,540 ± 694 nmol·h/L
Cmax [1]: 648 ± 125 nM
dose excreted [2, 9]: 23.6%
dose excreted [2, 10]: 32.5%
dose excreted [2, 11]: 8.82%
cumulative excretion into feces [2]: 50.3 ± 6.18 nmol
cumulative excretion into urine [2]: 19.0 ± 3.81 nmol
logP ([3]; ref Liu et al., 2010): 5.03
cumulative excretion into bile [4]: 70.7 ± 20.4 nmol
Conclusion (dose-exposure relationship) [5, 12]: Nonlinear correlation
Conclusion (dose-exposure relationship) [5, 13]: Nonlinear correlation
Slope (90%CI) [5, 14]: 0.466 (0.290–0.642)
Slope (90%CI) [5, 15]: 0.656 (0.554–0.758)
AUC(0-t) ([6]; both, bladder): 0.988 µM·h
AUC(0-t) ([6]; both, brain): 0.244 µM·h
AUC(0-t) ([6]; both, heart): 1.64 µM·h
AUC(0-t) ([6]; both, intestine): 5.57 µM·h
AUC(0-t) ([6]; both, kidney): 2.83 µM·h
AUC(0-t) ([6]; both, liver): 6.36 µM·h
AUC(0-t) ([6]; both, lung): 7.11 µM·h
AUC(0-t) ([6]; both, spleen): 19.1 µM·h
AUC(0-t) ([6]; both, stomach): 1.72 µM·h
AUC(0-t) ([6]; female, ovary): 0.57 µM·h
AUC(0-t) ([6]; female, uterus): 0.773 µM·h
AUC(0-t) ([6]; male, testis): 0.116 µM·h
AUC0-t in spleen ([6]; rat tissue: spleen, 18 g/kg RPM extract p.o., tissues collected at 5, 15, 60 min): 19.1 µM·h
time at which C max was exhibited ([7]; rat plasma): ≤ 20 min
AUC(0-inf) ([7]; 6 g/kg): 1.35 µM·h
AUC(0-t) ([7]; 6 g/kg): 1.04 µM·h
Cmax ([7]; 6 g/kg): 205 ± 39.4 nM
MRT inf ([7]; 6 g/kg): 12.7 ± 4.65 h
Tmax ([7]; 6 g/kg): 0.12 ± 0.07 h
half-life ([7]; 6 g/kg): 7.72 ± 3.67 h
AUC(0-inf) ([7]; 18 g/kg): 2.91 µM·h
AUC(0-t) ([7]; 18 g/kg): 2.48 µM·h
Cmax ([7]; 18 g/kg): 491 ± 35.8 nM
MRT inf ([7]; 18 g/kg): 13 ± 4.18 h
Tmax ([7]; 18 g/kg): 0.14 ± 0.09 h
half-life ([7]; 18 g/kg): 9.44 ± 3.63 h

COc1cc(O)c2c(c1)C(=O)c1cc(C)cc(O)c1C2=O [Physcion, physcion]
plasma concentrations ([7]; RPM extract 6, 18 and 36 g/kg p.o., rat plasma): too low to be detected
Peff ([8]; colon): (7.45 ± 3.30) × 10^–3 cm/min
Peff ([8]; duodenum): (3.32 ± 1.50) × 10^–3 cm/min
Peff ([8]; ileum): (2.40 ± 0.58) × 10^–3 cm/min
Peff ([8]; jejunum): (2.30 ± 1.57) × 10^–3 cm/min

COc1cc(O[C@@H]2O[C@H](CO)[C@@H](O)[C@H](O)[C@H]2O)c2c(O)c(C(C)=O)c(C)cc2c1 [TG, torachrysone-8-O-glucoside]
AUC0-∞ [1]: 53.0 ± 18.3 nmol·h/L
AUC(0-t) [1]: 51.9 ± 18.1 nmol·h/L
Cmax [1]: 45.8 ± 9.94 nM
MRT0-∞ [1]: 2.10 ± 0.24 h
t 1/2 [1]: 2.00 ± 0.63 h
dose excreted [2, 9]: 27.9%
dose excreted [2, 10]: 45.5%
dose excreted [2, 11]: 17.6%
cumulative excretion into feces [2]: 30.4 ± 5.73 nmol
cumulative excretion into urine [2]: 19.1 ± 2.99 nmol
cumulative excretion into bile [4]: 8.96 ± 2.38 nmol
Conclusion (dose-exposure relationship) [5, 12]: Uncertainty of linear relationship
Slope (90%CI) [5, 14]: 0.720 (0.464–0.977)
Slope (90%CI) [5, 15]: 0.756 (0.627–0.884)
AUC(0-t) [6, 16]: 0.438 µM·h
AUC(0-t) [6, 17]: 0.0185 µM·h
AUC(0-t) [6, 18]: 1.78 µM·h
AUC(0-t) [6, 19]: 0.181 µM·h
AUC(0-t) [6, 20]: 0.845 µM·h
AUC(0-t) [6, 21]: 3.81 µM·h
AUC(0-t) [6, 22]: 0.438 µM·h
AUC(0-t) [6, 23]: 1.19 µM·h
AUC(0-t) [6, 24]: 1.46 µM·h
AUC(0-t) [6, 25]: 0.153 µM·h
AUC(0-t) [6, 26]: 0.38 µM·h
AUC(0-t) [6, 27]: 0.0698 µM·h
time at which C max was exhibited ([7]; rat plasma): ≤ 20 min
AUC(0-inf) ([7]; 6 g/kg): 0.0166 ± 0.0109 µM·h
AUC(0-t) ([7]; 6 g/kg): 0.0158 ± 0.0106 µM·h
Cmax ([7]; 6 g/kg): 12.4 ± 2.66 nM
MRT inf ([7]; 6 g/kg): 1.58 ± 0.77 h
Tmax ([7]; 6 g/kg): 0.19 ± 0.09 h
half-life ([7]; 6 g/kg): 1.23 ± 0.58 h
AUC(0-inf) ([7]; 18 g/kg): 0.0495 ± 0.0171 µM·h
AUC(0-t) ([7]; 18 g/kg): 0.048 ± 0.0172 µM·h
Cmax ([7]; 18 g/kg): 37.3 ± 4.57 nM
MRT inf ([7]; 18 g/kg): 2.23 ± 0.3 h
Tmax ([7]; 18 g/kg): 0.11 ± 0.07 h
half-life ([7]; 18 g/kg): 1.9 ± 0.22 h

OC[C@H]1O[C@@H](Oc2c(O)cc(O)cc2/C=C/c2ccc(O)cc2)[C@H](O)[C@@H](O)[C@@H]1O [TSG, 2,3,5,4′-teterahydroxystilbene-2-O-β-D-glucoside]
AUC0-∞ [1]: 4,610 ± 1,430 nmol·h/L
AUC(0-t) [1]: 4,460 ± 1,360 nmol·h/L
Cmax [1]: 4290 nM
dose excreted [2, 9]: 24.6%
dose excreted [2, 10]: 38.9%
dose excreted [2, 11]: 14.3%
cumulative excretion into feces [2]: 2778 ± 349 nmol
cumulative excretion into urine [2]: 1619 ± 208 nmol
logP ([3]; no source given): 0.10
cumulative excretion into bile [4]: 410 ± 55.4 nmol
Conclusion (dose-exposure relationship) [5, 12]: Nonlinear correlation
Conclusion (dose-exposure relationship) [5, 13]: Nonlinear correlation
Slope (90%CI) [5, 14]: 0.342 (0.204–0.479)
Slope (90%CI) [5, 15]: 0.536 (0.422–0.649)
AUC(0-t) [6, 16]: 18.2 µM·h
AUC(0-t) [6, 17]: 6.42 µM·h
AUC(0-t) [6, 18]: 45.5 µM·h
AUC(0-t) [6, 19]: 71.7 µM·h
AUC(0-t) [6, 20]: 86.4 µM·h
AUC(0-t) ([6]; both, kidney, AUC0-t in the kidney, RPM extract 18 g/kg p.o., rat kidney, sampling 5, 15, 60 min): 86.4 µM·h
AUC(0-t) [6, 21]: 114 µM·h
AUC(0-t) [6, 22]: 35.1 µM·h
AUC(0-t) [6, 23]: 68.7 µM·h
AUC(0-t) [6, 24]: 47.9 µM·h
AUC(0-t) [6, 25]: 7.59 µM·h
AUC(0-t) [6, 26]: 12.2 µM·h
AUC(0-t) [6, 27]: 7.77 µM·h
time at which C max was exhibited ([7]; rat plasma): ≤ 20 min
AUC(0-inf) ([7]; 6 g/kg): 2.46 µM·h
AUC(0-t) ([7]; 6 g/kg): 2.38 µM·h
Cmax ([7]; 6 g/kg): 1670 nM
MRT inf ([7]; 6 g/kg): 3.86 ± 1.17 h
Tmax ([7]; 6 g/kg): 0.24 ± 0.15 h
half-life ([7]; 6 g/kg): 6.53 ± 2.45 h
AUC(0-inf) ([7]; 18 g/kg): 4.2 µM·h
AUC(0-t) ([7]; 18 g/kg): 4.04 µM·h
Cmax ([7]; 18 g/kg): 3260 nM
MRT inf ([7]; 18 g/kg): 4.37 ± 0.91 h
half-life ([7]; 18 g/kg): 6.54 ± 2.02 h
